Results taken from patent publication KR20090133069A, “형질전환 성장인자의 활성을 가지는 펩타이드 및 그의 용도” ((주)케어젠, priority 2009, dated 2009).

Tests used:
NIH-3T3 세포 = assay: Peptide stability: storage at 40℃ in 50 mM Tris-HCl (pH 8.0), remaining activity by MTT assay; format: physicochemical; details: 50 mM Tris-HCl pH 8.0, sampled at days 0-100, peptide 10 ㎍/ml, TGF-β1 1 ㎍/ml, Fig. 3
C57BL/6 마우스의 멜라노사이트 = assay: Melanin production in melanocytes induced with α-MSH; format: cell-based, mouse; details: α-MSH 200 μg/ml; peptide 10 μg/ml; 3 days; Fig. 4
타이로시나아제 = assay: Tyrosinase activity (L-DOPA, 405 nm) in lysate of B16F10 cells treated with α-MSH; format: cell-based, mouse; details: peptide 1 and 10 μg/ml, 4 days, versus α-MSH alone, Fig. 6
B16F10 세포 = assay: Microscopic observation of melanosomes in B16F10 cells treated with α-MSH; format: cell-based, mouse; details: α-MSH 200 μg/ml; peptide 10 μg/ml; 4 days; Fig. 7
[1] = test system: TRP1(tyrosinase-related protein-1); assay: RT-PCR of melanogenesis marker TRP1 in B16F10 cells treated with α-MSH; format: cell-based, mouse; details: α-MSH plus peptide 10 μg/ml; 4 days; Fig. 8
TRP2 = assay: RT-PCR of melanogenesis marker TRP2 in B16F10 cells treated with α-MSH; format: cell-based, mouse; details: α-MSH plus peptide 10 μg/ml; 4 days; Fig. 8
[2] = test system: MITF(microphthalmia-associated transcription factor); assay: RT-PCR of melanogenesis marker MITF in B16F10 cells treated with α-MSH; format: cell-based, mouse; details: α-MSH plus peptide 10 μg/ml; 4 days; Fig. 8
프로콜라겐 = assay: Procollagen production in NIH3T3 fibroblasts (ELISA); format: cell-based; details: peptide 1 and 10 μg/ml, 72 h, Fig. 9
피브로넥틴 = assay: Fibronectin production in NIH3T3 fibroblasts (ELISA); format: cell-based; details: peptide 1 and 10 μg/ml, 72 h, Fig. 10
HaCat 세포 = assay: Cytotoxicity test, SRB colorimetry, HaCat cells; format: cell-based; details: 10 ng/ml to 100 μg/ml, 72 h, Fig. 11
NIH3T3 세포 = assay: Cytotoxicity test, SRB colorimetry, NIH3T3 cells; format: cell-based; details: 10 ng/ml to 100 μg/ml, 72 h, Fig. 11
B16F10 세포주 = assay: Cytotoxicity test, SRB colorimetry, B16F10 cells; format: cell-based; details: 10 ng/ml to 100 μg/ml, 72 h, Fig. 11

| Substance | remaining activity over storage time (stability) (NIH-3T3 세포) | melanin production (visual) (C57BL/6 마우스의 멜라노사이트) | decrease of tyrosinase activity (타이로시나아제) [%] | melanosomes induced by α-MSH (microscopy) (B16F10 세포) | TRP1 expression (RT-PCR) [1] | TRP2 expression (RT-PCR) (TRP2) | MITF expression (RT-PCR) [2] | procollagen production (프로콜라겐) | fibronectin production (피브로넥틴) | cell number / cytotoxicity (HaCat 세포) | cell number / cytotoxicity (NIH3T3 세포) | cell number / cytotoxicity (B16F10 세포주) |
| --- | --- | --- | --- | --- | --- | --- | --- | --- | --- | --- | --- | --- |
| NH2-Gly-Arg-Gly-Asp-Tyr-Leu-Arg-Ser-Ala-Asp-Thr-OH (H-GRGDYLRSADT-OH) [서열2 펩타이드] | 활성도가 오랫동안 지속됨 | α-MSH를 처리하지 않았을 때와 유사한 멜라닌 생성 | ≥ 30 | 사라지는 | 발현을 억제한다 | 발현을 억제한다 | 발현을 억제한다 | 우수한 프로콜라겐 생성 촉진능 | 우수한 피브로넥틴 생성 촉진능 | 세포 수의 감소는 전혀 관찰 되지 않았으며 | 세포 수의 감소는 전혀 관찰 되지 않았으며 | 세포 수의 감소는 전혀 관찰 되지 않았으며 |
| 재조합 TGF-β1: 대장균으로부터 생산된 재조합 TGF-β1(Sigma), control in the stability test | 활성도가 급격히 감소됨 | – | – | – | – | – | – | – | – | – | – | – |
